Literature values in patent US20060270013A1 (priority 2003, published 2006).

Biological target: NADPH-dependent benzil reductase (Bacillus cereus, UniProt Q8RJB2)
Details: substrate of benzil reductase; Maruyama et al. 2002

NADPH-dependent benzil reductase, sequence (Q8RJB2 whole entry): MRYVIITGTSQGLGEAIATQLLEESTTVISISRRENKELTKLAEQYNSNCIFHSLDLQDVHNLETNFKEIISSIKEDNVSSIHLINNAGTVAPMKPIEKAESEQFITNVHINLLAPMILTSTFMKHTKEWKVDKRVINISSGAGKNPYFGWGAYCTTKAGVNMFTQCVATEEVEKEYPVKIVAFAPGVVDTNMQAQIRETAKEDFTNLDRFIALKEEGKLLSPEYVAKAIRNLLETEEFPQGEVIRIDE

| Structure (SMILES) | Km [µM] | kcat [s⁻¹] |
| --- | --- | --- |
| CC(=O)C(=O)c1ccccc1 [1-phenyl-1,2-propanedione] | 42 | 2.75 |
| O=Cc1ccc([N+](=O)[O-])cc1 [p-nitrobenzaldehyde] | 261 | 0.02 |
